# Test results from patent US20060074243A1, “Hydroxamic acid and amide compounds and their use as protease inhibitors” (Pharmacia Corporation, priority 2002, published 2006).
# Assays:
# Human recombinant MMP-2 = target: T1, Human recombinant MMP-2 (Homo sapiens, UniProt P08253); test: In vitro MMP inhibition analysis (fluorogenic peptide substrate cleavage), Ki; type: biochemical; settings: Table 2
# T1 construct: made in house; host or cells: MMP-2-transfected p2AHT2 cells
# T1 sequence (P08253 110-660): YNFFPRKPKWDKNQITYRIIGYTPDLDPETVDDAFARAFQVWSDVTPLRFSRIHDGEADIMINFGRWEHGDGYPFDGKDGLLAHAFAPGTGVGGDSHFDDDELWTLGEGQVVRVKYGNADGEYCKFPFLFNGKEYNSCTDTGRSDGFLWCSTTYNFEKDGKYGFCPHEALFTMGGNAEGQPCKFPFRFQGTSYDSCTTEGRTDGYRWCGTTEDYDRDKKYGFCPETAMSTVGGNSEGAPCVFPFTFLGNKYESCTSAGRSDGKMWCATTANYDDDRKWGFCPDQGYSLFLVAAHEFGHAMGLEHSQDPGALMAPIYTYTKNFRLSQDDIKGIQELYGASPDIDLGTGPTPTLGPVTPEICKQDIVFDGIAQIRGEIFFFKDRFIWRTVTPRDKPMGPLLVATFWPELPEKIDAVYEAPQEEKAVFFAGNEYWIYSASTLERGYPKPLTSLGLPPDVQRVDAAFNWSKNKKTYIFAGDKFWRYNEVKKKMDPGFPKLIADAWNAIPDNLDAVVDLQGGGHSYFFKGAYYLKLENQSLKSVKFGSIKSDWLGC
# Method in brief: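 Human recombinant MMP-2 from transfected p2AHT2 cells was activated with APMA or trypsin and incubated 1 h at room temperature with compounds and 4 μM MCA-RPLGL(Dpa)ARER-NH2. Buffer was pH 7.5 Tris/NaCl/CaCl2, and fluorescence was read at ex 330/em 420 nm. Ki was fitted by Morrison's equation without substrate correction.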
# Human recombinant MMP-14 = target: T2, Human recombinant MMP-14 (Homo sapiens, UniProt P50281); test: as above; type: biochemical; settings: Table 2
# T2 construct: The catalytic domain enzyme was expressed in E. coli inclusion bodies, solubilized in urea; made in house
# Method in brief: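 Refolded catalytic domain of MMP-14 expressed in E. coli, activated with APMA or trypsin, incubated 1 h at room temperature with 4 μM MCA-peptide substrate in Tris buffer pH 7.5 with CaCl2. Cleavage rate followed by fluorescence (ex 330/em 420 nm). Ki from Morrison-equation fit; substrate at or below Km, so no substrate correction.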
Structure (SMILES),Ki (Human recombinant MMP-2) [nM],Ki (Human recombinant MMP-14) [nM]
CC(C)Cc1ccc(-c2ccc(S(=O)(=O)C3(C(=O)NO)CCOCC3)cc2)nc1 [Example 103],0.278,342
CCCCCc1ccc(-c2ccc(S(=O)(=O)C3(C(=O)NO)CCOCC3)cc2)c(F)c1 [Example 101],0.878,929
O=C(NO)C1(S(=O)(=O)c2ccc(-c3ccc(CCO)cc3)cc2)CCOCC1 [Example 98],0.158,52.6
O=C(NO)C1(S(=O)(=O)c2ccc(-c3cnccn3)cc2)CCOCC1 [Example 71],5.96,224
O=C(NO)C1(S(=O)(=O)c2ccc(-c3ccc(-c4ccccc4)cc3)cc2)CCOCC1 [Example 104],0.087,247
COC(C)CCOc1ccc(-c2ccc(S(=O)(=O)C3(C(=O)NO)CCOCC3)cc2)cc1C(F)(F)F (centres unmarked) [Example 100],32.5,> 10000
CCCCc1nc(-c2ccc(S(=O)(=O)C3(C(=O)NO)CCOCC3)cc2)no1 [Example 105],5.79,1730
CC(C)CCc1ccc(-c2ccc(S(=O)(=O)C3(C(=O)NO)CCOCC3)cc2)nc1 [Example 99],0.112,421
COc1ccc(-c2ccc(S(=O)(=O)C3(C(=O)NO)CCOCC3)cc2)cc1F [Example 102],0.078,11.1

# Continued, values first:
Ki (Human recombinant MMP-2) [nM],Ki (Human recombinant MMP-14) [nM],Structure (SMILES)
0.17,499,COCCOc1ccc(-c2ccc(S(=O)(=O)C3(C(=O)NO)CCN(C4CC4)CC3)cc2)cc1 [Example 113]
5.81,2280,COCCN1CCC(C(=O)NO)(S(=O)(=O)c2ccc(-c3ccc(OCCN4CCCC4)cc3)cc2)CC1 [Example 72]
0.497,744,CC(C)CCOc1ccc(-c2ccc(S(=O)(=O)C3(C(=O)NO)CCOCC3)cc2)cc1 [Example 108]
0.208,1110,CCOCCOc1ccc(-c2ccc(S(=O)(=O)C3(C(=O)NO)CCN(CCOC)CC3)cc2)cc1 [Example 117]
0.645,1790,CCN1CCC(C(=O)NO)(S(=O)(=O)c2ccc(-c3ccc(OCCOC)cc3)cc2)CC1 [Example 111]
0.168,681,COCCOc1ccc(-c2ccc(S(=O)(=O)C3(C(=O)NO)CCN(C4CC4)CC3)cc2)cc1F [Example 112]
0.217,585,COCCOc1ccc(-c2ccc(S(=O)(=O)C3(C(=O)NO)CCN(CCOC)CC3)cc2)cc1F [Example 114]
0.276,530,COCCOc1ccc(-c2ccc(S(=O)(=O)C3(C(=O)NO)CCN(CCOC)CC3)cc2)cc1 [Example 115]
0.539,1850,CCN1CCC(C(=O)NO)(S(=O)(=O)c2ccc(-c3ccc(OCCOC)c(F)c3)cc2)CC1 [Example 110]
0.514,2930,CCOCCOc1ccc(-c2ccc(S(=O)(=O)C3(C(=O)NO)CCN(CC)CC3)cc2)cc1 [Example 116]
